Values quoted from earlier work, collected in patent US20040058969A1, “Novel epothilone derivatives, method for the preparation thereof and their pharmaceutical use” (priority 2000, published 2004).

Test system: P-glycoprotein-forming multiresistant tumor lines
Conditions: in vitro, relative to taxol

Structure (SMILES) | activity against P-glycoprotein-forming multiresistant tumor lines in comparison to taxol
C/C(=C\c1csc(C)n1)[C@@H]1C[C@@H]2O[C@@H]2CCC[C@H](C)[C@H](O)[C@@H](C)C(=O)C(C)(C)[C@@H](O)CC(=O)O1 [Epothilone A, epothilone A] | significantly higher activity
C/C(=C\c1csc(C)n1)[C@@H]1C[C@@H]2O[C@]2(C)CCC[C@H](C)[C@H](O)[C@@H](C)C(=O)C(C)(C)[C@@H](O)CC(=O)O1 [Epothilone B, epothilone B] | significantly higher activity
